“Also recorded” adds a separate entry of the source. Counter-ions that a name gives are not always drawn. Like-named read-outs stand apart in the source and are kept apart here. Marks after values point to notes of the source that are not given here.
Tests used:
[1] = Dissolution studies in Millipore water; type: physicochemical; settings: for completeness of dissolution: 60 min; for t40% (time for dissolution of 40% of given amount): water, amount equivalent to 50 mg carbendazim; for dissolution compared, in words: dissolution profiles
[2] = Dissolution studies in 0.1N hydrochloric acid; type: physicochemical; settings: for t60% (time for dissolution of 60% of given amount): pH 1, amount equivalent to 50 mg carbendazim
Procedure: A weighed amount of salt (so as to have 50 mg of carbendazim) was triturated to provide a uniform particle size and was suspended in the dissolution media. The volume of dissolution media was 250 ml, and the stirring rate was maintained at 250 rpm. One ml aliquot samples filtered through a 0.45 μm Millipore filter were withdrawn at 1, 5, 10, 15, 20, 30, 45, and 60 min, respectively. One ml of the dissolution medium was added to the dissolution vessel after each sampling period to maintain constant volume. The samples were then analyzed by HPLC.

[3] = Moisture sorption studies (desiccators at 43% and 81% RH, 25° C., 8 days; PXRD of the solid afterwards); type: physicochemical; settings: for PXRD pattern / solid state form after storage / moisture adsorbed: 8 days; for hygroscopicity in words: 43 and 81% RH; for Hygroscopicity: gain of moisture: hygrostat for 8 days at 43% RH; for moisture adsorbed: 25° C.
Procedure: The PXRD patterns of different salts of carbendazim were determined at ambient temperature and atmosphere using a Philips PM 990/100 diffractometer (Philips, The Netherlands). The x-ray generator (PW3373/00 Cu LFF DK119706) has a copper radiation source which generates a voltage of 50 kV, and a current of 40 mA. Counts were measured using a X'Celerator detector which is based on real time multiple strip (RTMS) technology. Samples were packed into zero background silicon sample holders, and precautions were used to avoid introducing preferred orientation of the crystallites. The samples were subjected to a spinning movement having a rotation time of 4 s. The samples were scanned with the diffraction angle, 2θ, increasing from 3° to 63°, with a step size of 0.0167° and a counting time of 15.24 s. The XRD pattern traces of samples (salts subjected to moisture sorption or stability) were compared with regard to peak position and relative intensity, peak shifting, and the presence or lack of peaks in certain angular regions.
The moisture sorption of the various salts was determined by exposing weighed amounts (˜2 to 3 mg) of salts in a 4 ml glass vial, which was placed in sealed desiccators containing saturated salt solutions. Saturated salt solutions that give defined relative humidities (as a function of temperature) have been reported in various handbooks containing physical and chemical data.
The current study was performed at 25° C. with relative humidity values of 43% (saturated solution of potassium carbonate) and 81% (saturated solution of potassium bromide). The samples were stored in desiccators of known relative humidity for 8 days, following which they were re-weighed to calculate the % weight change. The solid phases were then analyzed using PXRD to ascertain the effect of the moisture content.

[4] = Solubility determination of carbendazim salts in water (HPLC); settings: for PHmax: pH below which solubility plateaus or decreases (solution saturated with respect to salt); for pH: saturated solution in water, Table 13
Procedure: These were mixed by end-to-end rotation. Each sample was then filtered through a 0.45 μm PVDF filter. The filterate was collected in two or more fractions, which were analyzed separately by HPLC to ensure that there were no misleading solubility measurements resulting from adsorption onto the filter. Filter adsorption was assumed to be negligible when the concentration of successive fractions agreed within ±5%. The composition of the residual solid was examined to ensure that at least some of the solid phase that was in equilibrium with the solution was indeed the salt.
The Ksp determinations were generally calculated directly from the observed carbendazim concentration once it was established that the residual solid phase contained excess salt. Since […] results in the neutralization of an equivalent amount of counterion to its free base form, the same procedure could be used to calculate Ksp in systems where free acid precipitation occurred prior to saturation of the system with the given salt.
A Beckman Gold HPLC system equipped with a model no. 168 detector at 280 nm was used for all assays. […] The flow rate was controlled at 0.8 ml/min, with carbendazim's retention time at 3.5 min. The injection volume was 20 μL. The evaluation of the assay was conducted by using carbendazim standard solutions at concentrations ranging from 0.1 μg/ml to 100 μg/ml.

[5] = cited from earlier work; for pKa: weak base compounds
[6] = Dehydration kinetics by TGA (Flynn and Wall method); type: physicochemical; settings: TGA heating rates 5-15° C. per minute
Procedure: TGA traces were recorded with a TA Instruments TGA Q-50 (TA Instruments, New Castle, Del.). The sample weight was approximately 2-4 mg, and heating rates of 2-15° C./min under nitrogen gas flow of 60 ml/min were used.
The dehydration kinetics of carbendazim hydrochloride dihydrate was studied by subjecting the crystals to TGA heating rates of 5, 7, 10, 12, and 15° C. per minute. The activation energy (Ea) for the dehydration process was calculated from these TGA data according to the method described by Flynn and Wall (J. H. Flynn and L. A. Wall, J. Research Nat. Bur. Standards A, Phys. Chem. A71, 25 (1967); J. Polym. Sci., Pol. Left. 5, 191 (1967); J. Polym. Sci., Pol. Lett. 4, 323 (1966)). This method involves the analysis of weight loss versus temperature at different heating rates (β) to determine the corresponding absolute temperatures at a constant weight loss (C). Graphs of negative logarithm of heating rates (expressed in ° C./s) (−log β) versus 1/T were plotted (FIG. 8) and the activation energy calculated from the slope of the curves. The activation energy for the dehydration of the hydrochloride salt, calculated from the TGA data, was ˜64 kJ/mol.

With carbendazim hemisulfate monohydrate the completeness of dissolution ([1]; Millipore water) was “did not completely dissolve”, the “t40% (time for dissolution of 40% of given amount)” value [1] was “˜3 min” and the “t60% (time for dissolution of 60% of given amount)” value [2] was 2 to 3 min. The “PXRD pattern / solid state form after storage” value (shortened to “PXRD pattern / solid state form”) ([3]; 43% RH) was “remained unchanged”, the hygroscopicity in words [3] was “minimally hygroscopic” and the “PXRD pattern / solid state form” value ([3]; 81% RH) was “remained unchanged”. The “Hygroscopicity: gain of moisture” value [3] was “Gain 0.38%”.

For carbendazim besylate, the completeness of dissolution ([1]; Millipore water) was “did not completely dissolve”, the “t40% (time for dissolution of 40% of given amount)” value [1] was “˜5 min” and the “t60% (time for dissolution of 60% of given amount)” value [2] was 2 to 3 min. For the same compound, the “PXRD pattern / solid state form” value ([3]; 43% RH) was “remained unchanged”, the moisture adsorbed ([3]; 81% RH) was “approximately 4.3%” and the “PXRD pattern / solid state form” value ([3]; 81% RH) was “remained unchanged”. For the same compound, the “Hygroscopicity: gain of moisture” value [3] was “Gain 0.18%”, the “pH of saturated sol.” value ([4]; Table 14) was 1.76 and the PHmax [4] was 1.65. The pH ([4]; 25° C.) was 1.76, the “S (aqueous solubility)” value ([4]; water, 25° C.) was 6.992 mg/mL and the Sw ([4]; water, Table 14) was 6.992 mg/mL.

In the case of `O=S(=O)(O)c1ccccc1` [Benzenesulfonic acid], the Pka1 ([5]; acids used as counter-ions, Table 1) is listed as 0.7.

In the case of `CN/C(=N\CCSCc1nc[nH]c1C)NC#N` [Cimetadine], the pKa [5] is given as 6.8.

In the case of `CCN(CC)C(=O)c1cccnc1` [Nikethamide], the pKa [5] is given as 3.5.

In the case of `Cc1cc(-c2nc3ccccc3s2)ccc1N` [AMPB], the pKa [5] is given as 4.

With `COC(=O)Nc1nc2ccccc2[nH]1` [Free Base, carbendazim, reference compound] the “dissolved fraction of the initial dose” value ([1]; Millipore water, after 60 min) was “less than 1%”, the completeness of dissolution ([2]; 0.1N HCl) was “completely soluble” and the “t60% (time for dissolution of 60% of given amount)” value [2] was 5 min. For the same compound, the “Hygroscopicity: gain of moisture” value [3] was “Gain 0.36%”, the “S (aqueous solubility)” value [4] was 0.006 mg/mL and the Sw [4] was 0.006 mg/mL. For the same compound, the “pH of saturated sol.” value [4] was 5.90.

For carbendazim phosphate, the completeness of dissolution ([1]; Millipore water) was “did not completely dissolve”, the “dissolution compared, in words” value ([1]; Millipore water) was “better dissolution than the 1:1 physical mixture” and the “t40% (time for dissolution of 40% of given amount)” value [1] was “˜5 min”. For the same compound, the “t60% (time for dissolution of 60% of given amount)” value [2] was 2 to 3 min, the “PXRD pattern / solid state form” value ([3]; 43% RH) was “changed” and the “PXRD pattern / solid state form” value ([3]; 43% RH, listed as phosphate) was “loses intensity in 28 0 2E reflection”. For the same compound, the “PXRD pattern / solid state form” value ([3]; 43% RH, listed as phosphate salt) was “change form”, the hygroscopicity in words [3] was “highly hygroscopic” and the moisture adsorbed ([3]; 81% RH) was 7.5%. The “PXRD pattern / solid state form” value ([3]; 81% RH) was “showed changes in their PXRD patterns” and the “Hygroscopicity: gain of moisture” value [3] was “Gain 0.88%”.

For `COC(=O)Nc1nc2ccccc2[nH]1` [Hydrochloride, carbendazim hydrochloride], the completeness of dissolution ([1]; Millipore water) was “did not completely dissolve”, the “t40% (time for dissolution of 40% of given amount)” value [1] was “˜5 min” and the “t60% (time for dissolution of 60% of given amount)” value ([2]; hydrochloride) was 2 to 3 min. For the same compound, the “PXRD pattern / solid state form” value ([3]; 43% RH) was “remained unchanged”, the hygroscopicity in words [3] was “minimally hygroscopic” and the “PXRD pattern / solid state form” value ([3]; 81% RH) was “remained unchanged”. The “Hygroscopicity: gain of moisture” value ([3]; hydrochloride) was “Gain 0.13%”, the “activation energy for the dehydration” value [6] was about 64 kJ/mol and the “S (aqueous solubility)” value [4] was 6.080 mg/mL. The Sw [4] was 6.080 mg/mL, the “pH of saturated sol.” value [4] was 1.68 and the pH ([4]; 25° C.) was 1.68.

For `Cc1cc(NC(=O)NC(=O)c2ccccc2N(C)C)ccc1Oc1ncc(Br)cn1` [BPU NSC 639829], the pKa [5] is given as “˜5”.

For `Clc1ccc(COC(Cn2ccnc2)c2ccc(Cl)cc2Cl)c(Cl)c1` (stereo not shown) [Miconazole], the pKa [5] is listed as 6.7.

For `CC(=O)O.CCCCCCCCCCCCCCCCCC1=NCCN1` [Glyodin], the pKa [5] is listed as “˜7”.

In the case of carbendazim mesylate, the “time to complete dissolution” value ([1]; Millipore water) is reported as at most 30 min, the “dissolution compared, in words” value ([1]; Millipore water) is reported as “dissolved the fastest; also recorded: best dissolution time” and the “t40% (time for dissolution of 40% of given amount)” value [1] is reported as under 1 min. For the same compound, the “time for dissolving 100% of sample” value ([2]; 0.1N HCl, pH 1.1) was “instanteously soluble”, the “t60% (time for dissolution of 60% of given amount)” value [2] was 1 min and the “PXRD pattern / solid state form” value ([3]; 43% RH) was “moisture, same”. For the same compound, the hygroscopicity in words [3] was “highly hygroscopic”, the moisture adsorbed ([3]; 81% RH) was 10.1% and the “PXRD pattern / solid state form” value ([3]; 81% RH) was “showed changes in their PXRD patterns”. The “Hygroscopicity: gain of moisture” value [3] was “Gain 2.04%”, the “pH of saturated sol.” value ([4]; Table 14) was 0.80 and the pH ([4]; 25° C.) was 0.8. The “S (aqueous solubility)” value ([4]; water, 25° C.) was over 205.662 mg/mL, the “S (aqueous solubility)” value ([4]; water, 25° C., listed as mesylate) was over 200 mg/mL and the Sw ([4]; water, Table 14) was >205.662* mg/ml.

With carbendazim tosylate the completeness of dissolution ([1]; Millipore water) was “did not completely dissolve”, the “t40% (time for dissolution of 40% of given amount)” value [1] was “˜5 min” and the “t60% (time for dissolution of 60% of given amount)” value [2] was 2 to 3 min. The “PXRD pattern / solid state form” value ([3]; 43% RH) was “remained unchanged”, the moisture adsorbed ([3]; 81% RH) was “approximately 4.3%” and the “PXRD pattern / solid state form” value ([3]; 81% RH) was “remained unchanged”. The “Hygroscopicity: gain of moisture” value [3] was “Gain 0.27%”, the “pH of saturated sol.” value ([4]; Table 14) was 1.93 and the Ksp ([4]; calculated after correcting for common ion effect) was 4.1 × 10^−4 M^2. For the same compound, the PHmax [4] was 1.82, the pH ([4]; 25° C.) was 1.93 and the “S (aqueous solubility)” value ([4]; water, 25° C.) was 4.815 mg/mL. For the same compound, the Sw ([4]; water, Table 14) was 4.815 mg/mL.

In the case of `CCCCOC(=O)c1ccc(N)cc1` [Butamben], the pKa [5] is listed as 5.4.

— patent US20070043070A1, “Weak base salts” (priority 2000, published 2007)
